{"source": "patent US20210137549A1", "about": "“DEVICE FOR CHEMICALLY ASSISTED DISSECTION” (AuXin Surgery SA, priority 2013, published 2021)", "key": {"[1]": {"assay": "Stability study of Mesna powder in the presence of riboflavin 5′-phosphate sodium (weight, dry oven)", "assay_type": "physicochemical", "description": "About 1.5 g of Mesna powder was accurately weighed, without or with 7 mg or 15 mg of riboflavin 5′-phosphate sodium, and placed in a dry oven at 20° C. for 1 month to test its stability (Table 6)."}, "[2]": {"assay": "Stability study of solutions comprising Mesna and riboflavin 5′-phosphate sodium (HPLC quantification of Mesna)", "assay_type": "physicochemical", "settings": "4° C. and 20° C.", "description": "A stability study was conducted for the purpose of evaluating a possible interaction between riboflavin 5′-phosphate sodium, a dye accepted for parenteral use in humans, and Mesna. […]\nIn order to validate the obtained data, a reference corresponding to a reconstituted solution of Mesna without riboflavin 5′-phosphate sodium was analyzed at the same time as the samples comprising riboflavin 5′-phosphate sodium (Table 5)."}, "[3]": {"settings": "rats, intraduodenal administration compared with i.v.; cited from earlier work"}, "[4]": {"settings": "cited from earlier work"}}, "note": "Read-outs that look alike come from different tables or passages of the source."}
{"smiles": "O=S(=O)([O-])CCS.[Na+]", "note": "[1.5 g Mesna powder]", "values": [{"measurement": "W1 = weight after 1 month in dry oven at 20° C.", "setting": "[1]; after 1 month in dry oven at 20° C., ± standard deviation", "result": "4.807 ± 0.016", "unit": "g"}, {"measurement": "W0 = weight before placement in dry oven at 20° C.", "setting": "[1]; before placement in dry oven, ± standard deviation", "result": "4.907 ± 0.038", "unit": "g"}]}
{"smiles": "O=S(=O)([O-])CCS.[Na+]", "note": "[Mesna, sodium 2-mercaptoethanesulfonate]", "values": [{"measurement": "variations in Mesna content after addition of riboflavin 5′-phosphate sodium", "setting": "[2]; 0.23 mg/mL and 0.50 mg/mL RF5′PNa, before the 24 h point", "result": "≤ 1", "unit": "%"}, {"measurement": "stability of Mesna in dry form in the presence of riboflavin 5′-phosphate sodium (conclusion)", "setting": "[1]; dry form, 1 month at 20° C.", "result": "stable"}]}
{"smiles": "CN(C)c1ccc2nc3ccc(=[N+](C)C)cc-3sc2c1", "note": "[methylene blue]", "values": [{"measurement": "tissue concentrations after intraduodenal versus i.v. administration", "setting": "[3]", "result": "higher concentrations in intestinal wall and liver but lower concentrations in whole blood and brain"}, {"measurement": "effect of co-administration of mesna on pharmacokinetics", "setting": "[4]; 100 mg methylene blue with and without mesna", "result": "did not alter the pharmacokinetics"}, {"measurement": "urinary excretion of methylene blue and its leucoform", "setting": "[4]; i.v. administration (second value of the pair)", "result": 28, "unit": "% dose"}, {"measurement": "urinary excretion of methylene blue and its leucoform", "setting": "[4]; oral administration (first value of the pair)", "result": 18, "unit": "% dose"}, {"measurement": "estimated terminal half-life", "setting": "[4]; whole blood, i.v. administration of 100 mg, seven volunteers", "result": 5.25, "unit": "h"}, {"measurement": "area under the concentration-time curve", "setting": "[4]; whole blood, i.v. administration of 100 mg", "result": 137, "unit": "nmol/min/mL"}, {"measurement": "area under the concentration-time curve", "setting": "[4]; whole blood, oral administration of 100 mg", "result": 9, "unit": "nmol/min/mL"}]}
{"smiles": "Cc1cc2nc3c(=O)[nH]c(=O)nc-3n(C[C@H](O)[C@H](O)[C@H](O)COP(=O)([O-])O)c2cc1C.[Na+]", "note": "[riboflavin 5′-phosphate sodium]", "values": [{"measurement": "interaction of riboflavin 5′-phosphate sodium with Mesna in solution (conclusion)", "setting": "[2]; phosphate buffer, 1 h and 24 h", "result": "does not interfere with or degrade Mesna"}]}
